Reference: patent US6355799B1, “Substituted benzene compounds, process for their preparation, and herbicidal and defoliant compositions containing them” (ISK Americas Incorporated, priority 1997, dated 2002)

Assays:
Format in all cases: in vivo
[1] = tested on: upland rice (Oryza sp., var. Tebonnet, RICE); test: Pre-emerge test, crop safety; settings: rated 14 days after application, 0 = no damage, 100 = complete death
Method in brief: (§1)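 Visual ratings on a 0-100 scale (0 no damage, 100 all plants dead) were taken at 14 days after treatment. Rates of 15-1000 g ai/ha in acetone, 187 l/ha, were sprayed onto soil one day after planting (pre-emerge) or onto 2-3 leaf plants with 0.25% v/v surfactant (post-emerge).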

[2] = tested on: field corn (Zea mays L., var. Dekalb 535, CORN); test: Pre-emerge test, crop safety; settings: rated 14 days after application, 0 = no damage, 100 = complete death
Method in brief: as §1

[3] = tested on: redroot pigweed (Amaranthus retroflexus, AMARE); test: Pre-emerge test, greenhouse herbicide activity screening; settings: rated 14 days after application, 0 = no damage, 100 = complete death
Method in brief: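 Compounds in acetone were track-sprayed at 187 l/ha, 15–1000 g ai/ha, onto sandy loam pots. Pre-emerge seeds were sown one day before spraying, with surface watering afterwards. Post-emerge plants were at the 2–3 leaf stage and sprayed with 0.25% v/v non-ionic surfactant. Injury was rated 0–100 at 14 days.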

[4] = tested on: large crabgrass (Digitaria sanguinalis, DIGSA); test: Post-emerge test, greenhouse herbicide activity screening; settings: post-emerge, 14 days after application, rating scale 0-100
Method in brief: as §1

[5] = tested on: lambsquarters (Chenopodium album, CHEAL); test: as above; settings: post-emerge, 14 days after application, rating scale 0-100
Method in brief: as §1

[6] = tested on: sicklepod (Cassia obtusifolia, CASOB); test: as above; settings: post-emerge, 14 days after application, rating scale 0-100
Method in brief: as §1

[7] = tested on: barnyardgrass (Echinochloa crus-galli, ECHCG); test: as above; settings: post-emerge, 14 days after application, rating scale 0-100
Method in brief: as §1

[8] = tested on: velvetleaf (Abutilon theophrasti, ABUTH); test: as above; settings: post-emerge, 14 days after application, rating scale 0-100
Method in brief: as §1

[9] = tested on: redroot pigweed (Amaranthus retroflexus, AMARE); test: as above; settings: post-emerge, 14 days after application, rating scale 0-100
Method in brief: as §1

[10] = tested on: johnsongrass (Sorghum halepense, SORHA); test: as above; settings: post-emerge, 14 days after application, rating scale 0-100
Method in brief: as §1

[11] = tested on: ivyleaf morningglory (Ipomoea hederacea, IPOHE); test: as above; settings: post-emerge, 14 days after application, rating scale 0-100
Method in brief: as §1

[12] = tested on: green foxtail (Setaria viridis, SETVI); test: as above; settings: post-emerge, 14 days after application, rating scale 0-100
Method in brief: as §1

[13] = tested on: large crabgrass (Digitaria sanguinalis, DIGSA); test: Pre-emerge test, greenhouse herbicide activity screening; settings: rated 14 days after application, 0 = no damage, 100 = complete death
Method in brief: (§2)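 Sandy loam pots; pre-emerge: sown 1 d pre-spray, surface-watered after, then bottom-watered. Post-emerge: sown 8–21 d before, 2–3 leaf stage, + 0.25% v/v NIS, bottom-watered. Acetone, 187 l/ha track spray, 15–1000 g ai/ha. 0–100 injury score, day 14.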

[14] = tested on: lambsquarters (Chenopodium album, CHEAL); test: as above; settings: rated 14 days after application, 0 = no damage, 100 = complete death
Method in brief: as §2

[15] = tested on: sicklepod (Cassia obtusifolia, CASOB); test: as above; settings: rated 14 days after application, 0 = no damage, 100 = complete death
Method in brief: as §2

[16] = tested on: barnyardgrass (Echinochloa crus-galli, ECHCG); test: as above; settings: rated 14 days after application, 0 = no damage, 100 = complete death
Method in brief: as §2

[17] = tested on: velvetleaf (Abutilon theophrasti, ABUTH); test: as above; settings: rated 14 days after application, 0 = no damage, 100 = complete death
Method in brief: as §2

[18] = tested on: johnsongrass (Sorghum halepense, SORHA); test: as above; settings: rated 14 days after application, 0 = no damage, 100 = complete death
Method in brief: as §2

[19] = tested on: ivyleaf morningglory (Ipomoea hederacea, IPOHE); test: as above; settings: rated 14 days after application, 0 = no damage, 100 = complete death
Method in brief: as §2

[20] = tested on: green foxtail (Setaria viridis, SETVI); test: as above; settings: rated 14 days after application, 0 = no damage, 100 = complete death
Method in brief: as §2

[21] = tested on: upland rice (Oryza sp., var. Tebonnet, RICE); test: Post-emerge test, crop safety; settings: post-emerge, 14 days after application, rating scale 0-100
Method in brief: as §2

[22] = tested on: field corn (Zea mays L., var. Dekalb 535, CORN); test: Post-emerge test, crop safety; settings: post-emerge, 14 days after application, rating scale 0-100
Method in brief: as §2

`COc1c(Cl)cc(F)c(-n2c(=O)cc(C(F)(F)F)n(C)c2=O)c1NC(=O)C(=O)c1ccccc1` [2-121] was tested. Which “Pre-emerge phytotoxicity rating (0-100), crop damage, RICE” value ([1]; 63 g ai/ha) did it give?
The value was 0.

What about the “Pre-emerge phytotoxicity rating (0-100), crop damage, RICE” value ([1]; 250 g ai/ha) of the same molecule?
Its value is 0.

And the “Pre-emerge phytotoxicity rating (0-100), crop damage, CORN” value ([2]; 63 g ai/ha)?
The value was 0.

And the “Pre-emerge phytotoxicity rating (0-100), crop damage, CORN” value ([2]; 250 g ai/ha)?
The value was 10.

What about the “Pre-emerge Herbicidal Activity, phytotoxicity rating (0-100), AMARE” value ([3]; 63 g ai/ha) of the same molecule?
The value was 100.

And the “Pre-emerge Herbicidal Activity, phytotoxicity rating (0-100), AMARE” value ([3]; 250 g ai/ha)?
The value was 100.

What about the “phytotoxicity rating DIGSA” value ([4]; 63 g ai/ha) of the same molecule?
Its value is 0.

And the “phytotoxicity rating DIGSA” value ([4]; 250 g ai/ha)?
Its value is 10.

And the “phytotoxicity rating CHEAL” value ([5]; 63 g ai/ha)?
The value was 60.

What about the “phytotoxicity rating CHEAL” value ([5]; 250 g ai/ha) of the same molecule?
Its value is 80.

What about the “phytotoxicity rating CASOB” value ([6]; 63 g ai/ha) of the same molecule?
Its value is 10.

And the “phytotoxicity rating CASOB” value ([6]; 250 g ai/ha)?
Its value is 60.

What about the “phytotoxicity rating ECHCG” value ([7]; 63 g ai/ha) of the same molecule?
The value was 0.

And the “phytotoxicity rating ECHCG” value ([7]; 250 g ai/ha)?
Its value is 0.

What about the “phytotoxicity rating ABUTH” value ([8]; 63 g ai/ha) of the same molecule?
The value was 70.

What about the “phytotoxicity rating ABUTH” value ([8]; 250 g ai/ha) of the same molecule?
The value was 100.

And the “phytotoxicity rating AMARE” value ([9]; 63 g ai/ha)?
Its value is 90.

What about the “phytotoxicity rating AMARE” value ([9]; 250 g ai/ha) of the same molecule?
Its value is 100.

What about the “phytotoxicity rating SORHA” value ([10]; 63 g ai/ha) of the same molecule?
Its value is 0.

And the “phytotoxicity rating SORHA” value ([10]; 250 g ai/ha)?
The value was 10.

And the “phytotoxicity rating IPOHE” value ([11]; 63 g ai/ha)?
Its value is 100.

And the “phytotoxicity rating IPOHE” value ([11]; 250 g ai/ha)?
Its value is 100.

What about the “phytotoxicity rating SETVI” value ([12]; 63 g ai/ha) of the same molecule?
The value was 0.

And the “phytotoxicity rating SETVI” value ([12]; 250 g ai/ha)?
The value was 20.

What about the “Pre-emerge Herbicidal Activity, phytotoxicity rating (0-100), DIGSA” value ([13]; 63 g ai/ha) of the same molecule?
The value was 0.

What about the “Pre-emerge Herbicidal Activity, phytotoxicity rating (0-100), DIGSA” value ([13]; 250 g ai/ha) of the same molecule?
Its value is 30.

What about the “Pre-emerge Herbicidal Activity, phytotoxicity rating (0-100), CHEAL” value ([14]; 63 g ai/ha) of the same molecule?
Its value is 80.

What about the “Pre-emerge Herbicidal Activity, phytotoxicity rating (0-100), CHEAL” value ([14]; 250 g ai/ha) of the same molecule?
The value was 100.

And the “Pre-emerge Herbicidal Activity, phytotoxicity rating (0-100), CASOB” value ([15]; 63 g ai/ha)?
Its value is 0.

What about the “Pre-emerge Herbicidal Activity, phytotoxicity rating (0-100), CASOB” value ([15]; 250 g ai/ha) of the same molecule?
The value was 50.

And the “Pre-emerge Herbicidal Activity, phytotoxicity rating (0-100), ECHCG” value ([16]; 63 g ai/ha)?
The value was 0.

And the “Pre-emerge Herbicidal Activity, phytotoxicity rating (0-100), ECHCG” value ([16]; 250 g ai/ha)?
The value was 0.

And the “Pre-emerge Herbicidal Activity, phytotoxicity rating (0-100), ABUTH” value ([17]; 63 g ai/ha)?
Its value is 100.

What about the “Pre-emerge Herbicidal Activity, phytotoxicity rating (0-100), ABUTH” value ([17]; 250 g ai/ha) of the same molecule?
The value was 100.

And the “Pre-emerge Herbicidal Activity, phytotoxicity rating (0-100), SORHA” value ([18]; 63 g ai/ha)?
The value was 0.

And the “Pre-emerge Herbicidal Activity, phytotoxicity rating (0-100), SORHA” value ([18]; 250 g ai/ha)?
The value was 0.

What about the “Pre-emerge Herbicidal Activity, phytotoxicity rating (0-100), IPOHE” value ([19]; 63 g ai/ha) of the same molecule?
Its value is 0.

What about the “Pre-emerge Herbicidal Activity, phytotoxicity rating (0-100), IPOHE” value ([19]; 250 g ai/ha) of the same molecule?
Its value is 90.

What about the “Pre-emerge Herbicidal Activity, phytotoxicity rating (0-100), SETVI” value ([20]; 63 g ai/ha) of the same molecule?
Its value is 0.

What about the “Pre-emerge Herbicidal Activity, phytotoxicity rating (0-100), SETVI” value ([20]; 250 g ai/ha) of the same molecule?
Its value is 60.

What about the “phytotoxicity rating RICE” value ([21]; 63 g ai/ha) of the same molecule?
The value was 15.

What about the “phytotoxicity rating RICE” value ([21]; 250 g ai/ha) of the same molecule?
Its value is 25.

What about the “phytotoxicity rating CORN” value ([22]; 63 g ai/ha) of the same molecule?
The value was 10.

And the “phytotoxicity rating CORN” value ([22]; 250 g ai/ha)?
Its value is 20.
